Results published in US7749540B2, “Compositions comprising modafinil compounds” (Cephalon, Inc., priority 2000, dated 2010).

Legend:
mice = conditions: single administration; cited from earlier work
monkeys = conditions: single administration; cited from earlier work
[1] = Water and lipid solubility of modafinil (observation in background)

NC(=O)C[S+]([O-])C(c1ccccc1)c1ccccc1 (stereo not drawn) [modafinil, 2-(benzhydryl-sulfinyl)acetamide]
locomotor activity (mice): increased locomotor activity | nocturnal activity (monkeys): increased nocturnal activity | water and lipid solubility [1]: very poor
